{"source": "patent US20110152379A1", "about": "“COMPOSITION FOR CONTROL OF AGING AND/OR EXTENSION OF LIFE, CONTAINING DAPSONE AS ACTIVE INGREDIENT” (priority 2008, published 2011)", "key": {"[1]": {"tested_on": "ATP", "test": "Measurement of ATP amount in C. elegans", "format": "in vivo", "conditions": "C. elegans treated with DDS; FIG. 9", "description": "The amount of ATP was measured by slightly modifying the method as mentioned above. In order to, analyze the total amount of ATP, C. elegans was cultured by feeding only on PABA or by feeding on PABA and dapsone, and then was washed with S Basal buffer solution (0.1 M NaCl/0.05 M potassium phosphate buffer, pH 6.0) to remove a contaminant and prepare a sample for measuring. The sample was ultimately adjusted to be 100 ul and then froze at −80° C. C. elegans that was frozen was immediately heated for 15 minutes to erupt ATP and then maintained at a cold condition. Since then, the residue of C. elegans was removed by using a centrifuge (at 15,000 g for 5 minutes). The amount of ATP was measured by using the reagent of bioluminescence assay kit CLS II (Roche Molecular Biochemicals) and Luminometer (available from PerkinElmer company). The amount of ATP was standardized with the amount of protein."}, "[2]": {"tested_on": "NOX4", "test": "NOX4 mRNA level by RT-PCR in PQ-treated human diploid fibroblast", "format": "cell-based", "conditions": "1 mM PQ for 5 minutes, FIG. 26", "description": "The amount of NOX4 (HDF specific) mRNA, which is a source for generating a cytosolic superoxide anion, increased by PQ was measured. For FIG. 26B, it was quantitived as % rate as compared with a control (non-treated human diploid fibroblast).\nRNA of the human diploid fibroblast was isolated by using Trizol Reagent (MRC Cincinnati, USA), and NOX4 and GAPDH were measured through RT-PCR by using Biometra T Gradient PCR (Biometra, Goettingen, Germany) machine. A specific NOX primer; 5′-[…]-3′ (Forward Primer) and 5′-[…]-3′ (Reverse Primer); Primer for GAPDH 5′-[…]-3′ (Forward Primer) and 5′-[…]-3′ (Reverse Primer) were used as primers. DNA that was manipulated by PCR was isolated through 1.2% agarose gel electrophoresis, stained with EtBr to be visualized and then taken a photography that can be shown through UV."}, "[3]": {"tested_on": "H2O2", "test": "Hydrogen peroxide by Amplex Red assay in paraquat-treated C. elegans", "format": "in vivo", "conditions": "250 mM paraquat for 1 hour; FIG. 11", "procedure": "The effect of dapsone on ROS scavenging was measured by using Amplex Red hydrogen peroxide/peroxygenase detection kit (Molecular Probes, Eugene, Oreg.) [39] that were previously described in order to measure the effect of dapsone on ROS scavenging. Simply put, 150 C. elegans that fed only on PABA or fed on PABA and dapsone was treated with 250 mM of paraquat for 1 hour. 100 C. elegans were adjusted to be 50 ul at 96-well plate and then 50 ul of Amplex Red (200 uM) was added to each well. After maintaining at 22° C. for 90 minutes, the amount of hydrogen peroxide was measured at 540 nm of absorbance by using a plate reader (Tecan, infinite 200)."}, "[4]": {"tested_on": "SOD2", "test": "Western blot of SOD2 amount in human diploid fibroblast", "format": "cell-based", "conditions": "various concentrations of DDS, FIG. 25B", "description": "Trolox that is well known as a water-soluble vitamin E was used as a positive control.\nThe isolated sample was transferred to a nitrocellulose and analyzed through Western Blot using MS601 (Total OXPHOS Complexes Detection Kit, MitoSciences, containing antibodies against SDH30 subunit of complex II (5 μg/ml), Core2 subunit of complex III (0.2 μg/ml), COXII subunit of complex IV (2 μg/ml), and subunit α of F1-ATPase of complex V (0.2 μg/ml)), PCKpan-p, PCKα/β-p, PKCδ-p (Phospho-PKC antibody Sampler Kit, Cell Signaling Technology), PKC α, PCKβ, PKCδ (Life Technologies), β-Actin (Sigma), and the like. The measurement was performed by using a horseradish […] secondary antibodies (Zymed) and ECL (Pierce). The results were shown through visualizing by using Autoradiographic film (Image Reader, LAS-3000Fujifilm, Japan)."}, "[5]": {"tested_on": "membrane potential of mitochondria", "test": "Membrane potential of mitochondria, DiOC6 assay", "format": "cell-based, human", "conditions": "pretreated with DDS (3 hours) or DPI (30 minutes), then 1 mM PQ 24 hours; FIG. 29B", "description": "The protein amount of mitochondria constituent complex was measured by using Western Blot using Complex I (20 kDa ND6 subunit), Complex II (30 kDa FeS, non-heme iron protein, SDHB), Complex III (47 kDa core protein 2), Complex IV (18 kDa subunit IV), Complex V (55 kDa subunit a ATP synthase), and the like. […] The membrane potential (Δψm) of mitochondria used DiOC6. […] Since then, the above fibroblast was treated with 40 nM of DiOC6 for 15 minutes. The results were measured by using Cary Eclipse Fluorescence Spectrophotometer (Varian, Calif., USA) and the excitation wavelength and emission wavelength were measured at 480 nm and 520 nm, respectively.\nThe change of membrane potential (Δψm) of mitochondria was measured by using a cationic dye, DiOC6 that is a specific fluorescent material for mitochondria. An aspect of the change was measured by using Fluorescence Spectrophotometer. The cell was cultured in 40 nM DiQC6 for 15 minutes and then the fluorescent material that was left was removed by using PBS. The analysis was performed by using Cary Eclipse fluorescence spectrophotometer (Varian, Calif., USA), and then the excitation wavelength was measured at 480 nm, and the emission wavelength was measured at 520 nm."}, "[6]": {"tested_on": "mitochondria", "test": "Mitochondria structure staining with MitoTracker Red", "format": "cell-based, human", "conditions": "pretreated with DDS or DPI, then 1 mM PQ 24 hours; FIG. 30", "description": "The first photograph indicates the stained mitochondria of the non-treated human diploid fibroblast as a control, the second photograph indicates the stained mitochondria of the PQ-treated human diploid fibroblast, the third photograph indicates the stained mitochondria of the human diploid fibroblast that was pretreated with DDS and then was treated with PQ, and the final photograph indicates the stained mitochondria of the human diploid fibroblast that was treated with DPI and PQ together (by using Confocal process). The values of (A, B, C and D: ×4000) is means±SEM (n=3), # is p<0.005 relative CC; and * is p<0.005 relative C.\nThe human diploid fibroblasts were cultured at 24-well plate. After the above experiment materials, i.e., the human diploid fibroblasts, were pretreated and then were treated with PQ for 24 hours, the above cells were treated with MitoTracker Red CMXRos (50 nM), which is a staining material for mitochondria, at 37° C. for 30 minutes. The dye is a marker of function for marking mitochondria through marking a transmembrane potential of mitochondria in a cell. After culturing, the cells were washed with PBS and then fixed with 4% of paraformaldehyde at 4° C. for overnight. […] After washing, the cells were covered with a cover glass and visualized through a fluorescence microscope."}, "[7]": {"tested_on": "C. elegans", "test": "Chemiluminescent of lipofuscin in small intestine of worm", "format": "in vivo", "conditions": "fed on DDS during the whole life and after the adolescence; FIG. 5", "description": "The chemiluminescent of C. elegans was taken a photograph by exposing for 800 msec through 525 nm Band-Pass Filter. The size of each photograph was only adjusted by using Adobe Photoshop CS2. For measuring the amount of Chemiluminescent in a small intestine, the brightness of pixels in a certain region was measured by Image J 1.35. At least 30 of C. elegans were measured every day and then the mean and standard error were calculated."}, "[8]": {"tested_on": "C. elegans", "test": "Vitality (movements) of worms at 23 days", "format": "in vivo", "conditions": "23 days after adult; FIG. 4", "text": "At this time, the arrows indicate the initial positions of worms."}}, "data": [{"smiles": "Nc1ccc(S(=O)(=O)c2ccc(N)cc2)cc1", "note": "[DDS, 4,4′-diaminodiphenylsulfone]", "values": [{"measurement": "ATP amount", "setting": "[1]", "result": "decreased"}, {"measurement": "NOX4 expression increased by PQ", "setting": "[2]", "result": "decreases"}, {"measurement": "ROS (H2O2) generation by PQ", "setting": "[3]", "result": "meaningfully suppresses"}, {"measurement": "amount of SOD2", "setting": "[4]", "result": "decreases"}, {"measurement": "decrease of membrane potential induced by PQ", "setting": "[5]", "result": "meaningfully maintained"}, {"measurement": "shape of mitochondria after PQ (MitoTracker)", "setting": "[6]", "result": "recovered, partially"}, {"measurement": "generation of lipofuscin", "setting": "[7]", "result": "delayed for several days"}, {"measurement": "movement of worms", "setting": "[8]", "result": "more strong active movement"}]}]}
